Results reported in patent US7196110B2, “N-substituted tricyclic 3-aminopyrazoles as inhibitors for the treatment of cell proliferative disorders” (Janssen Phamaceutica N.V., priority 2002, dated 2007).
Read-outs that look alike come from different tables or passages of the source.

Biological target: T1, PDGF-receptor beta enzyme comprising the tyrosine kinase domain (Homo sapiens, UniProt P09619)
T1 construct: from amino acid 545 to 1106 of GenBank Access NO: AAA36427
Experiment: Inhibition of PDGF-receptor kinase activity (cell-free, PLC1 peptide, 33P Flashplate)
Assay type: biochemical
Details: for inhibition at 10 µM: compound at 10 uM, read-out: Percent Inhibition @ 10 uM
Summary of the method: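 The IC50 is the inhibitor level halving kinase activity relative to inhibitor-free wells, measured as 33P captured on a streptavidin-bound biotin-PLC1 peptide. The reaction ran 60 min at 30 °C in pH 8 Tris buffer with 1 mM DTT, 5 μM ATP and the 545–1106 kinase-domain enzyme.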

[1] = PDGF-R kinase activity, read-out: IC50
[2] = read-out: IC50 (μM) on PDGF-R kinase activity

T1 sequence (P09619 545-1106): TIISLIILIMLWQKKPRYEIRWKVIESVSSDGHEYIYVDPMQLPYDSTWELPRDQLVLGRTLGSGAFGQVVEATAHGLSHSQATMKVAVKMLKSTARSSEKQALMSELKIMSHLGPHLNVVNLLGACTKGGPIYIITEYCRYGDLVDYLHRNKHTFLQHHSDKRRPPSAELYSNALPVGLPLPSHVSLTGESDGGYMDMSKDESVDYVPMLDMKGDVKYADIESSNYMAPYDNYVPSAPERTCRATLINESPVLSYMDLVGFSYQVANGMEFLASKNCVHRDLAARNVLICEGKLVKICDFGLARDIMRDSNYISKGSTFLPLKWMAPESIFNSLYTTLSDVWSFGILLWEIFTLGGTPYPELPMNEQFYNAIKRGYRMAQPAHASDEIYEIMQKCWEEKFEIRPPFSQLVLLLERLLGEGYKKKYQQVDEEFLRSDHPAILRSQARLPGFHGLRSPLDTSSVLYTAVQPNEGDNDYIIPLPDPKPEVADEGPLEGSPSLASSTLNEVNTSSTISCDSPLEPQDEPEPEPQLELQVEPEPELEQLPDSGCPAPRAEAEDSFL

| Structure (SMILES) | inhibition at 10 µM (PDGF-R kinase activity) | IC50 [1] | IC50 [2] |
| --- | --- | --- | --- |
| COC(=O)C(NC(=O)n1nc(Nc2cccc(F)c2)c2c1-c1cc(OC)c(OC)cc1C2)C(C)C (stereo not shown) [Compound 530, 2-{[3-(3-Fluoro-phenylamino)-6,7-dimethoxy-4H-indeno[1,2-c]pyrazole-1-carbonyl]-amino}-3-methyl-butyric acid methyl ester] | 71.5% | 4.15 µM | – |
| COc1cc2c(cc1OC)-c1c(c(Nc3cccc(F)c3)nn1C(=O)NCCNC(=O)c1ccccc1)C2 [Compound 532, 3-(3-Fluoro-phenylamino)-6,7-dimethoxy-4H-indeno[1,2-c]pyrazole-1-carboxylic acid (2-benzoylamino-ethyl)-amide] | 42% | – | – |
| COc1cc2c(cc1OC)-c1c(c(Nc3cccc(F)c3)nn1C(=O)CC(=O)N1CCCC1)C2 [Compound 536, 1-[3-(3-Fluoro-phenylamino)-6,7-dimethoxy-4H-indeno[1,2-c]pyrazol-1-yl]-3-pyrrolidin-1-yl-propane-1,3-dione] | 88% | 0.436 µM | – |
| CCN(CC)C(=O)CC(=O)n1nc(Nc2cccc(F)c2)c2c1-c1cc(OC)c(OC)cc1C2 [Compound 537, N,N-Diethyl-3-[3-(3-fluoro-phenylamino)-6,7-dimethoxy-4H-indeno[1,2-c]pyrazol-1-yl]-3-oxo-propionamide] | 104% | 0.33 µM | – |
| COc1cc2c(cc1OC)C(C(C)C)c1c-2n[nH]c1Nc1cccc(Br)c1 (stereo not shown) [Compound 538, (3-Bromo-phenyl)-(4-isopropyl-6,7-dimethoxy-2,4-dihydro-indeno[1,2-c]pyrazol-3-yl)-amine] | 65% | – | – |
| COc1cc2c(cc1OC)-c1c(c(Nc3cccc(F)c3)nn1C(=O)NCCOCCOCCO)C2 [Compound 544, 3-(3-Fluoro-phenylamino)-6,7-dimethoxy-4H-indeno[1,2-c]pyrazole-1-carboxylic acid {2-[2-(2-hydroxy-ethoxy)-ethoxy]-ethyl}-amide] | 60% | – | – |
| CCC1c2cc(OC)c(OC)cc2-c2c1c(Nc1cccc(Br)c1)nn2C(=O)c1ccccc1 (stereo not shown) [Compound 546, [3-(3-Bromo-phenylamino)-4-ethyl-6,7-dimethoxy-4H-indeno[1,2-c]pyrazol-1-yl]-phenyl-methanone] | 72.5% | – | – |
| COc1cc2c(cc1OC)C(C)c1c(Nc3cccc(Br)c3)nn(C(=O)OCCOCCOCCO)c1-2 (stereo not shown) [Compound 548, 3-(3-Bromo-phenylamino)-6,7-dimethoxy-4-methyl-4H-indeno[1,2-c]pyrazole-1-carboxylic acid 2-[2-(2-hydroxy-ethoxy)-ethoxy]-ethyl ester] | 82.5% | 0.214 µM | – |
| COc1cc2c(cc1OC)[C@@H](C)c1c-2n[nH]c1Nc1cccc(Br)c1 [Compound 553, (4R)-N-(3-bromo-phenyl)-(6,7-dimethoxy-4-methyl-2,4-dihydro-indeno[1,2-c]pyrazol-3-yl)-amine] | 99.5% | 0.0065 µM | – |
| COc1cc2c(cc1OC)-c1n[nH]c(Nc3ccccn3)c1C2 [Compound 562, (6,7-Dimethoxy-2,4-dihydro-indeno[1,2-c]pyrazol-3-yl)-pyridin-2-yl-amine] | 93.5% | 0.084 µM | – |
| COc1cc2c(cc1OC)-c1n[nH]c(NCc3cccnc3)c1C2 [Compound 564, (6,7-Dimethoxy-2,4-dihydro-indeno[1,2-c]pyrazol-3-yl)-pyridin-3-ylmethyl-amine] | 99.5% | 0.886 µM | – |
| COc1cc2c(cc1OC)-c1n[nH]c(N3CCc4cc(Br)ccc43)c1C2 [Compound 567, 3-(5-Bromo-2,3-dihydro-indol-1-yl)-6,7-dimethoxy-2,4-dihydro-indeno[1,2-c]pyrazole] | 39.5% | – | – |
| COc1cc2c(cc1OC)-c1n[nH]c(Nc3ncc(Br)cc3C)c1C2 [Compound 576, (5-Bromo-3-methyl-pyridin-2-yl)-(6,7-dimethoxy-2,4-dihydro-indeno[1,2-c]pyrazol-3-yl)-amine] | 18% | – | 33.3 µM |
| CNC(=O)n1nc2c(c1Nc1cccc(F)c1)Cc1cc(OC)c(OC)cc1-2 [Compound 579, 3-(3-Fluoro-phenylamino)-6,7-dimethoxy-4H-indeno[1,2-c]pyrazole-2-carboxylic acid methylamide] | 28% | – | – |

Next, values leading:

| inhibition at 10 µM (PDGF-R kinase activity) | IC50 [1] | IC50 [2] | Structure (SMILES) |
| --- | --- | --- | --- |
| 90% | 0.024 µM | – | COc1cc2c(cc1OC)-c1c(c(Nc3cccc(F)c3)nn1C(=O)CCC(N)=O)C2 [Compound 531, 4-[3-(3-Fluoro-phenylamino)-6,7-dimethoxy-4H-indeno[1,2-c]pyrazol-1-yl]-4-oxo-butyramide] |
| 94% | 0.933 µM | – | COc1cc2c(cc1OC)-c1c(c(Nc3cccc(F)c3)nn1CC(N)=O)C2 [Compound 534, 2-[3-(3-Fluoro-phenylamino)-6,7-dimethoxy-4H-indeno[1,2-c]pyrazol-1-yl]-acetamide] |
| 105% | 0.0322 µM | – | COc1cc2c(cc1OC)-c1nn(C(=O)CC(=O)N3CCCC3)c(Nc3cccc(F)c3)c1C2 [Compound 535, 1-[3-(3-Fluoro-phenylamino)-6,7-dimethoxy-4H-indeno[1,2-c]pyrazol-2-yl]-3-pyrrolidin-1-yl-propane-1,3-dione] |
| 47% | 14.7 µM | – | COc1cc2c(cc1OC)C(C(C)C)c1c-2n[nH]c1Nc1cccc(Cl)c1 (stereo not shown) [Compound 540, (3-Chloro-phenyl)-(4-isopropyl-6,7-dimethoxy-2,4-dihydro-indeno[1,2-c]pyrazol-3-yl)-amine] |
| 50% | 44.2 µM | – | COc1cccc(Nc2[nH]nc3c2C(C(C)C)c2cc(OC)c(OC)cc2-3)c1 (stereo not shown) [Compound 541, (4-lsopropyl-6,7-dimethoxy-2,4-dihydro-indeno[1,2-c]pyrazol-3-yl)-(3-methoxy-phenyl)-amine] |
| 21% | – | – | COc1cc2c(cc1OC)-c1c(c(Nc3cccc(F)c3)nn1C(=O)NCCNC(=O)c1ccccc1O)C2 [Compound 542, 3-(3-Fluoro-phenylamino)-6,7-dimethoxy-4H-indeno[1,2-c]pyrazole-1-carboxylic acid [2-(2-hydroxy-benzoylamino)-ethyl]-amide] |
| 68.5% | – | – | CCC1c2cc(OC)c(OC)cc2-c2c1c(Nc1cccc(Br)c1)nn2C(=O)OCCOCCOCCO (stereo not shown) [Compound 547, 3-(3-Bromo-phenylamino)-4-ethyl-6,7-dimethoxy-4H-indeno[1,2-c]pyrazole-1-carboxylic acid 2-[2-(2-hydroxy-ethoxy)-ethoxy]-ethyl ester] |
| 106% | 0.0911 µM | – | COc1cc2c(cc1OCc1ccccc1)-c1n[nH]c(Nc3cccc(F)c3)c1C2 [Compound 549, (7-Benzyloxy-6-methoxy-2,4-dihydro-indeno[1,2-c]pyrazol-3-yl)-(3-fluoro-phenyl)-amine] |
| 102% | 0.0325 µM | – | COc1cc2c(c(NC(C)=O)c1OC)Cc1c-2n[nH]c1Nc1cccc(F)c1 [Compound 557, N-[3-(3-Fluoro-phenylamino)-6,7-dimethoxy-2,4-dihydro-indeno[1,2-c]pyrazol-5-yl]-acetamide] |
| 102% | 0.0121 µM | – | COc1cc2c(c(N)c1OC)Cc1c-2n[nH]c1Nc1cccc(F)c1 [Compound 558, N3-(3-Fluoro-phenyl)-6,7-dimethoxy-2,4-dihydro-indeno[1,2-c]pyrazole-3,5-diamine] |
| 102% | 0.0247 µM | – | COc1cccc(Nc2n[nH]c3c2Cc2c-3cc(OC)c3oc(C)nc23)c1 [Compound 560, (4-Methoxy-2-methyl-6,9-dihydro-3-oxa-1,6,7-triaza-cyclopenta[b]-as-indacen-8-yl)-(3-methoxy-phenyl)-amine] |
| 89% | 1.45 µM | – | COc1cc2c(cc1OC)-c1n[nH]c(NCc3ccccn3)c1C2 [Compound 563, (6,7-Dimethoxy-2,4-dihydro-indeno[1,2-c]pyrazol-3-yl)-pyridin-2-ylmethyl-amine] |
| 41.5% | – | – | COc1cc2c(cc1OC)-c1n[nH]c(Nc3cccc4c3OC(F)(F)O4)c1C2 [Compound 565, (2,2-Difluoro-benzo[1,3]dioxol-4-yl)-(6,7-dimethoxy-2,4-dihydro-indeno[1,2-c]pyrazol-3-yl)-amine] |
| 54% | – | – | COc1cc2c(cc1OC)-c1n[nH]c(N3CCc4ccccc43)c1C2 [Compound 566, 3-(2,3-Dihydro-indol-1-yl)-6,7-dimethoxy-2,4-dihydro-indeno[1,2-c]pyrazole] |
| 67% | – | 7.33 µM | COc1cc2c(cc1OC)-c1c(c(Nc3cccc(F)c3)nn1CCO)C2 [Compound 572, 2-[3-(3-Fluoro-phenylamino)-6,7-dimethoxy-4H-indeno[1,2-c]pyrazol-1-yl]-ethanol] |
| 52% | – | – | COc1cc2c(cc1OC)-c1nn(CCO)c(Nc3cccc(F)c3)c1C2 [Compound 573, 2-[3-(3-Fluoro-phenylamino)-6,7-dimethoxy-4H-indeno[1,2-c]pyrazol-2-yl]-ethanol] |
| 99% | – | 0.163 µM | COc1cc2c(c3nc(C)oc13)Cc1c(NCc3ccccc3F)n[nH]c1-2 [Compound 574, (2-Fluoro-benzyl)-(4-methoxy-2-methyl-6,9-dihydro-3-oxa-1,6,7-triaza-cyclopenta[b]-as-indacen-8-yl)-amine] |
| 99.5% | – | 0.00213 µM | COc1cc2c(cc1OC)-c1n[nH]c(NCc3ccccc3Br)c1C2 [Compound 575, (2-Bromo-benzyl)-(6,7-dimethoxy-2,4-dihydro-indeno[1,2-c]pyrazol-3-yl)-amine] |
| 19% | – | 362 µM | COc1cc2c(cc1OC)-c1n[nH]c(Nc3cnccc3C(F)(F)F)c1C2 [Compound 577, (6,7-Dimethoxy-2,4-dihydro-indeno[1,2-c]pyrazol-3-yl)-(4-trifluoromethyl-pyridin-3-yl)-amine] |
